Laboratory results from US11046686B2, “Thiadiazole IRAK4 compounds” (Gilead Sciences, Inc., priority 2018, dated 2021).
Like-named read-outs stand apart in the source and are kept apart here.

Key:
[1] = system: TNFα; assay: IRAK4 Monocyte TNFα Cell Based Assay; parameters: species or system human
Method in brief: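 TNFα release quantified by HTRF (cryptate/XL665 antibody pair, overnight at RT) after 1 h compound pre-incubation (0.1% DMSO) and 4 h LPS challenge at 50 pg/ml, 37 °C, 5,000 monocytes per well. Signal ratio normalised between unstimulated (0%) and stimulated (100%) controls.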

[2] = biological target: IRAK4 enzyme (Homo sapiens (Human), UniProt Q9NWZ3); assay: IRAK4 Biochemical Assay (TR-FRET, STK1 KinEASE)
Method in brief: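 TR-FRET endpoint (KinEASE STK1): phosphopeptide detected with cryptate antibody and tracer after EDTA quench, ratio 665/615 nm, normalized to no-inhibitor wells as % inhibition. Reaction: 0.75 nM IRAK4, […] peptide, 500 μM ATP, pH 7.0 HEPES, 120 min room temperature, after 15 min compound preincubation with enzyme.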

[3] = Homo sapiens, Monocyte, human monocytes, second part of Table 2, compounds 33-343, unit inferred, read-out: EC50 MONO TNF HTRF
[4] = Homo sapiens, Monocyte, human monocytes, LPS stimulated, compounds 1-32, read-out: EC50 TNF
[5] = compounds 1-32, read-out: IC50 HTRF
[6] = Homo sapiens, Monocyte, read-out: EC50 MONO TNF HTRF

Sequence of IRAK4 enzyme (Q9NWZ3 whole entry): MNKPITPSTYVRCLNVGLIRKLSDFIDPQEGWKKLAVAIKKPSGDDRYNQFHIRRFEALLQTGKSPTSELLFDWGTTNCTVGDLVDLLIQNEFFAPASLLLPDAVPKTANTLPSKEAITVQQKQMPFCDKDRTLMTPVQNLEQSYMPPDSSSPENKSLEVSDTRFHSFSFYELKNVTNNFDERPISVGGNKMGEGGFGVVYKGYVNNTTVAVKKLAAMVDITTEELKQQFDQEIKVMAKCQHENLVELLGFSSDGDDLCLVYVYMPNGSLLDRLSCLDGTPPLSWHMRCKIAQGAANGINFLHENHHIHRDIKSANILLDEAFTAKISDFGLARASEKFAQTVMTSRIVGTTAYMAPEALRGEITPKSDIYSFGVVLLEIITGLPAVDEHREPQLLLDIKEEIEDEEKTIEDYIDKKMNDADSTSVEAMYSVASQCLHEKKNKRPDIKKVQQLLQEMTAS

Structure (SMILES)	EC50 [1, 3] [nM]	IC50 [2] [nM]	also measured
CC(=O)NC12C3C4C1C1C2C3C41c1nnc(-c2cnc(-c3ccc4cc(C#N)cnn34)cc2NC(C)C)s1 (centres unmarked) [Example 197, N-(4-(5-(6-(3-cyanopyrrolo[1,2-b]pyridazin-7-yl)-4-(isopropylamino)pyridin-3-yl)-1,3,4-thiadiazol-2-yl)cuban-1-yl)acetamide]	32.9	1.57	–
CC(C)Nc1cc(-c2ccc3cc(C#N)cnn23)ncc1-c1nnc(N2C3COCC2C3)s1 [Compound 234, 7-(5-(5-(3-oxa-6-azabicyclo[3.1.1]heptan-6-yl)-1,3,4-thiadiazol-2-yl)-4-(isopropylamino)pyridin-2-yl)pyrrolo[1,2-b]pyridazine-3-carbonitrile]	178	1.28	–
CC(=O)N[C@@H]1CC[C@@H](c2nnc(-c3cnc(-c4ccc5cc(C#N)cnn45)cc3NC(C)C)s2)OC1 [Example 81, N-((3R,6S)-6-(5-(6-(3-cyanopyrrolo[1,2-b]pyridazin-7-yl)-4-(isopropylamino)pyridin-3-yl)-1,3,4-thiadiazol-2-yl)tetrahydro-2H-pyran-3-yl)acetamide]	21.4	0.66	–
CC(C)Nc1cc(-c2ccc3cc(C#N)cnn23)ncc1-c1nnc(C(=O)N2CCOCC2)s1 [Example 18, 7-(4-(isopropylamino)-5-(5-(morpholine-4-carbonyl)-1,3,4-thiadiazol-2-yl)pyridin-2-yl)pyrrolo[1,2-b]pyridazine-3-carbonitrile]	–	–	EC50 [1, 4]: > 10000 nM; IC50 [2, 5]: 1000 nM
CC(C)Nc1cc(-c2ccc3cc(C#N)cnn23)ncc1-c1nnc(NC[C@@H](F)C(C)(C)O)s1 [Example 27, (R)-7-(5-(5-((2-fluoro-3-hydroxy-3-methylbutyl)amino)-1,3,4-thiadiazol-2-yl)-4-(isopropylamino)pyridin-2-yl)pyrrolo[1,2-b]pyridazine-3-carbonitrile]	–	–	EC50 [1, 4]: 67 nM; IC50 [2, 5]: 1 nM
C[C@]1(O)CCN(c2nnc(-c3cnc(-c4ccc5cc(C#N)cnn45)cc3NC3CCOCC3)s2)C[C@@H]1F [Example 204, 7-(5-(5-((3S,4S)-3-fluoro-4-hydroxy-4-methylpiperidin-1-yl)-1,3,4-thiadiazol-2-yl)-4-((tetrahydro-2H-pyran-4-yl)amino)pyridin-2-yl)pyrrolo[1,2-b]pyridazine-3-carbonitrile]	3.5	0.35	–
CC(C)Nc1cc(-c2ccc3cc(C#N)cnn23)ncc1-c1nnc(CC(C)(C)O)s1 [Example 320, 7-(5-(5-(2-hydroxy-2-methylpropyl)-1,3,4-thiadiazol-2-yl)-4-(isopropylamino)pyridin-2-yl)pyrrolo[1,2-b]pyridazine-3-carbonitrile]	–	1.18	EC50 [1, 6]: 68.3 nM
CC(C)Nc1cc(-c2ccc3cc(C#N)cnn23)ncc1-c1nnc(C(=O)N2CC[C@H](NC(=O)OC(C)(C)C)C2)s1 [Example 223, tert-butyl (S)-(1-(5-(6-(3-cyanopyrrolo[1,2-b]pyridazin-7-yl)-4-(isopropylamino)pyridin-3-yl)-1,3,4-thiadiazole-2-carbonyl)pyrrolidin-3-yl)carbamate]	1360	1.43	–
CC(=O)N[C@@H]1CCN(c2nnc(-c3cnc(-c4ccc5cc(C#N)cnn45)cc3NC(C)C)s2)CC1(F)F [Example 168, (R)-N-(1-(5-(6-(3-cyanopyrrolo[1,2-b]pyridazin-7-yl)-4-(isopropylamino)pyridin-3-yl)-1,3,4-thiadiazol-2-yl)-3,3-difluoropiperidin-4-yl)acetamide]	8.4	0.65	–
CC(=O)N1CC2(C1)CN(c1nnc(-c3cnc(-c4ccc5cc(C#N)cnn45)cc3NC(C)C)s1)C2 [Example 68, 7-(5-(5-(6-acetyl-2,6-diazaspiro[3.3]heptan-2-yl)-1,3,4-thiadiazol-2-yl)-4-(isopropylamino)pyridin-2-yl)pyrrolo[1,2-b]pyridazine-3-carbonitrile]	37.9	0.45	–
CC(=O)N[C@H]1CCCN(c2nnc(-c3cnc(-c4ccc5cc(C#N)cnn45)cc3NC(C)C)s2)C1 [Example 299, (S)-N-(1-(5-(6-(3-cyanopyrrolo[1,2-b]pyridazin-7-yl)-4-(isopropylamino)pyridin-3-yl)-1,3,4-thiadiazol-2-yl)piperidin-3-yl)acetamide]	41.6	0.52	–
CC(C)Nc1cc(-c2ccc3cc(C#N)cnn23)ncc1-c1nnc(N2CC3CC(C2)O3)s1 [Compound 233, 7-(5-(5-(6-oxa-3-azabicyclo[3.1.1]heptan-3-yl)-1,3,4-thiadiazol-2-yl)-4-(isopropylamino)pyridin-2-yl)pyrrolo[1,2-b]pyridazine-3-carbonitrile]	–	0.35	EC50 [1, 6]: 6.4 nM
CC(=O)N[C@H]1CCN(C(=O)c2nnc(-c3cnc(-c4ccc5cc(C#N)cnn45)cc3NC(C)C)s2)C1 [Example 12, (S)-N-(1-(5-(6-(3-cyanopyrrolo[1,2-b]pyridazin-7-yl)-4-(isopropylamino)pyridin-3-yl)-1,3,4-thiadiazole-2-carbonyl)pyrrolidin-3-yl)acetamide]	–	–	EC50 [1, 4]: 9 nM; IC50 [2, 5]: < 1 nM
CC(C)(O)[C@H]1C[C@@H]1c1nnc(-c2cnc(-c3ccc4cc(C#N)cnn34)cc2NC2COC2)s1 (single isomer, unassigned; isomer 1) [136 Isomer 1]	–	–	EC50 ([1]; human monocytes, second part of Table 2, compounds 33-343, unit inferred, read-out: EC50 MONO TNF HTRF): 4.2 nM; IC50 ([2]; second part of Table 2, compounds 33-343, unit inferred, read-out: IC50 IRAK4-HTBS): 0.57 nM
CC(C)Nc1cc(-c2ccc3cc(C#N)cnn23)ncc1-c1nnc(C(=O)NCCCN2CCCCC2)s1 [Example 11, 5-(6-(3-cyanopyrrolo[1,2-b]pyridazin-7-yl)-4-(isopropylamino)pyridin-3-yl)-N-(3-(piperidin-1-yl)propyl)-1,3,4-thiadiazole-2-carboxamide]	–	–	EC50 [1, 4]: 1170 nM; IC50 [2, 5]: < 1 nM
CC(=O)N[C@@H]1CCN(C(=O)c2cnc(-c3cnc(-c4ccc5cc(C#N)cnn45)cc3NC(C)C)s2)C1 [Example 40, (R)-N-(1-(2-(6-(3-cyanopyrrolo[1,2-b]pyridazin-7-yl)-4-(isopropylamino)pyridin-3-yl)thiazole-5-carbonyl)pyrrolidin-3-yl)acetamide]	87.6	3.09	–
CC(=O)NC1CCC2(C1)CN(c1nnc(-c3cnc(-c4ccc5cc(C#N)cnn45)cc3NC(C)C)s1)C2 (centres unmarked) [Example 170, N-(2-(5-(6-(3-cyanopyrrolo[1,2-b]pyridazin-7-yl)-4-(isopropylamino)pyridin-3-yl)-1,3,4-thiadiazol-2-yl)-2-azaspiro[3.4]octan-6-yl)acetamide]	16	0.36	–
CC(C)Nc1cc(-c2ccc3cc(C#N)cnn23)ncc1-c1nnc(N2CC3(CNC(=O)C3)C2)s1 [Example 163, 7-(4-(isopropylamino)-5-(5-(7-oxo-2,6-diazaspiro[3.4]octan-2-yl)-1,3,4-thiadiazol-2-yl)pyridin-2-yl)pyrrolo[1,2-b]pyridazine-3-carbonitrile]	15	0.54	–
CC(=O)N[C@@H]1C[C@@H]2CC[C@H]1N2c1nnc(-c2cnc(-c3ccc4cc(C#N)cnn34)cc2NC(C)C)s1 [Example 141, N-((1R,2R,4S)-7-(5-(6-(3-cyanopyrrolo[1,2-b]pyridazin-7-yl)-4-(isopropylamino)pyridin-3-yl)-1,3,4-thiadiazol-2-yl)-7-azabicyclo[2.2.1]heptan-2-yl)acetamide]	–	0.5	EC50 [1, 6]: 18.6 nM
